Reference: patent US20150038527A1, “FUROPYRIDINE DERIVATIVES” (Merck Patent GmbH, priority 2012, published 2015)

These compounds were tested against T1, SYK (Homo sapiens, UniProt P43405) (assay: SYK Flash Plate Assay (enzyme assay)).
T1 construct: 2.5 nM SYK, 400 nM Biotin-Aha-Aha-KEDPDYEWPSAKK and 10 μM ATP
Assay type: biochemical
Procedure: The kinase assay is performed either as 384-well Flashplate assay (for e.g. Topcount measurement) or as 384-well Image-Flashplate assay (for LEADseeker measurement).
2.5 nM SYK, 400 nM Biotin-Aha-Aha-KEDPDYEWPSAKK and 10 μM ATP (spiked with 0.3 μCi 33P-ATP/well) are incubated in a total volume of 50 μl (60 mM Hepes, 10 mM MgCl2, 1.2 mM Dithiothreitol, 0.02% Brij35, 0.1% BSA, pH 7.5) with or without test compound for 1 hours at 30° C. The reaction is stopped with 25 μl 200 mM EDTA. After 30 Min at 30° C. the liquid is removed and each well washed thrice with 100 μl 0.9% sodium chloride solution. Non-specific reaction is determined in presence of 0.1 μM Staurosporine. Radioactivity is measured with Topcount (when using Flashplates) or with LEADseeker (when using Image-Flashplates) respectively. Results (e.g. IC50-values) are calculated with program tools provided by the IT-department (e.g. Symyx Assay Explorer, Genedata Screener).

Compound | IC50 [µM]
COc1cc(-c2cc3nccc(-c4cc(C(=O)N[C@@H]5CCCC[C@@H]5N)ccc4F)c3o2)cc(OC)c1OC [Compound A48, N-((1R,2S)-2-mino-cyclohexyl)-4-fluoro-3-[2-(3,4,5-trimethoxy-phenyl)furo[3,2-b]pyridin-7-yl]-benzamide] | 0.3 to 3
COc1cc(-c2cc3nccc(-c4cccc(C(=O)N[C@H]5CCCC[C@H]5O)c4)c3o2)cc(OC)c1OC [Compound A11, N-((1S,2R)-2-hydroxy-cyclohexyl)-3-[2-(3,4,5-trimethoxy-phenyl)-furo[3,2-b]pyridin-7-yl]-benzamide] | 0.3 to 3
COc1cc(-c2cc3nccc(-c4ccc5ncn(CCN)c5c4)c3o2)cc(OC)c1OC [Compound A8, 2-{6-[2-(3,4,5-trimethoxy-phenyl)-furo[3,2-b]pyridin-7-yl]-benzoimidazol-1-yl}-ethylamine] | 0.3 to 3
COc1ccc(C(N)=O)cc1-c1cc2nccc(-c3cccc(C(=O)N[C@@H]4CCCC[C@@H]4N)c3)c2o1 [Compound A46, 3-{7-[3-((1R,2S)-2-amino-cyclohexylcarbamoyl)-phenyl]-furo[3,2-b]pyridin-2-yl}-4-methoxy-benzamide] | 0.3 to 3
COC[C@@H](N)CNC(=O)c1cccc(-c2ccnc3cc(-c4cc(OC)c(OC)c(OC)c4)oc23)c1 [Compound A26, N—((S)-2-amino-3-methoxy-propyl)-3-[2-(3,4,5-trimethoxy-phenyl)-furo[3,2-b]pyridin-7-yl]-benzamide] | 3 to 50
COc1cc(-c2cc3nccc(-c4cccc(C(=O)N[C@@H]5COC[C@@H]5N)c4)c3o2)cc(OC)c1OC [Compound A67, N-((3S,4R)-4-amino-tetrahydro-furan-3-yl)-3-[2-(3,4,5-trimethoxy-phenyl)furo[3,2-b]pyridin-7-yl]-benzamide] | 3 to 50
COc1ccc(C(N)=O)cc1-c1cc2nccc(-c3ccnc(NC[C@H]4CCCNC4)c3)c2o1 [Compound A90, 4-methoxy-3-(7-{2-[((S)-1-piperidin-3-ylmethyl)-amino]-pyridin-4-yl}-furo[3,2-b]pyridin-2-yl)-benzamide] | < 0.1
COC[C@H](N)CNC(=O)c1cccc(-c2ccnc3cc(-c4cc(OC)c(OC)c(OC)c4)oc23)c1 [Compound A5, N—((R)-2-amino-3-methoxy-propyl)-3-[2-(3,4,5-trimethoxy-phenyl)-furo[3,2-b]pyridin-7-yl]-benzamide] | 0.3 to 3
COc1cc(-c2cc3nccc(-c4cccc(C(=O)N[C@@H]5CCCC[C@@H]5NC(C)=O)c4)c3o2)cc(OC)c1OC [Compound A34, N-((1R,2S)-2-acetylamino-cyclohexyl)-3-[2-(3,4,5-trimethoxy-phenyl)furo[3,2-b]pyridin-7-yl]-benzamide] | 3 to 50
NC(=O)c1ccc(-c2cc3nccc(-c4cccc(C(=O)N[C@@H]5CCCC[C@@H]5N)c4)c3o2)c(F)c1 [Compound A73, 4-{7-[3-((1R,2S)-2-amino-cyclohexylcarbamoyl)-phenyl]-furo[3,2-b]pyridin-2-yl}-3-fluoro-benzamide] | 3 to 50
COc1cc(-c2cc3nccc(-c4ccc(O)nc4)c3o2)cc(OC)c1OC [Compound A38, 5-[2-(3,4,5-trimethoxy-phenyl)-furo[3,2-b]pyridin-7-yl]-pyridin-2-ol] | 0.3 to 3
COc1cc(-c2cc3nccc(NCC4CCCNC4)c3o2)cc(OC)c1OC (centres unmarked) [Compound A2, Piperidin-3-ylmethyl-[2-(3,4,5-trimethoxy-phenyl)-furo[3,2-b]pyridin-7-yl]-amine] | 3 to 50
COc1ccc(C(N)=O)cc1-c1cc2nccc(-c3cc(S(N)(=O)=O)ccc3OC)c2o1 [Compound A77, 4-methoxy-3-[7-(2-methoxy-5-sulfamoyl-phenyl)-furo[3,2-b]pyridin-2-yl]-benzamide] | 0.3 to 3
COc1ccc(-c2noc(CN)n2)cc1-c1cc2nccc(-c3c(OC)cccc3OC)c2o1 [Compound A106, C-(3-{3-[7-(2,6-dimethoxy-phenyl)-furo[3,2-b]pyridin-2-yl]-4-methoxy-phenyl}-[1,2,4]oxadiazol-5-yl)-methylamine] | < 0.1
COc1cc(-c2cc3nccc(-c4cc(C)cc(C(=O)NCCN)c4)c3o2)cc(OC)c1OC [Compound A56, N-(2-amino-ethyl)-3-methyl-5-[2-(3,4,5-trimethoxy-phenyl)-furo[3,2-b]pyridin-7-yl]-benzamide] | 0.3 to 3
COc1ccc(Cl)c(-c2cc3nccc(-c4cccc(C(=O)N[C@@H]5CCCC[C@@H]5N)c4)c3o2)c1 [Compound A25, N-((1R,2S)-2-amino-cyclohexyl)-3-[2-(2-chloro-5-methoxy-phenyl)-furo[3,2-b]pyridin-7-yl]-benzamide] | 0.3 to 3
COc1ccc(C(N)=O)cc1-c1cc2nccc(-c3c(OC)cccc3OC)c2o1 [Compound A62, 3-[7-(2,6-dimethoxy-phenyl)-furo[3,2-b]pyridin-2-yl]-4-methoxy-benzamide] | 0.3 to 3
COc1cc(-c2cc3ncc(F)c(-c4cccc(C(=O)N[C@@H]5CCCC[C@@H]5N)c4)c3o2)cc(OC)c1OC [Compound A47, N-((1R,2S)-2-amino-cyclohexyl)-3-[6-fluoro-2-(3,4,5-trimethoxy-phenyl)furo[3,2-b]pyridin-7-yl]-benzamide] | 0.3 to 3
COc1ccc(C(=O)NCCCN)cc1-c1ccnc2cc(-c3cc(OC)c(OC)c(OC)c3)oc12 [Compound A58, N-(3-amino-propyl)-4-methoxy-3-[2-(3,4,5-trimethoxy-phenyl)-furo[3,2-b]pyridin-7-yl]-benzamide] | 0.3 to 3
COc1ccc(C(N)=O)cc1-c1cc2nccc(-c3c(OC)cncc3OC)c2o1 [Compound A104, 3-[7-(3,5-dimethoxy-pyridin-4-yl)-furo[3,2-b]pyridin-2-yl]-4-methoxybenzamide] | 0.1 to 0.3
COc1cc(-c2cc3nccc(-c4ccc5[nH]c(=O)n(CCN)c5c4)c3o2)cc(OC)c1OC [Compound A6, 1-(2-amino-ethyl)-6-[2-(3,4,5-trimethoxy-phenyl)-furo[3,2-b]pyridin-7-yl]-1,3-dihydro-benzoimidazol-2-one] | 3 to 50
COc1ccc(C(=O)NCC(O)CO)cc1-c1cc2nccc(-c3c(OC)cccc3OC)c2o1 (centres unmarked) [Compound A70, N-(2,3-dihydroxy-propyl)-3-[7-(2,6-dimethoxy-phenyl)-furo[3,2-b]pyridin-2-yl]-4-methoxy-benzamide] | 0.3 to 3
COc1cc(-c2cc3nccc(-c4c(OC)cncc4OC)c3o2)cc(OC)c1OC [Compound A103, 7-(3,5-dimethoxy-pyridin-4-yl)-2-(3,4,5-trimethoxy-phenyl)-furo[3,2-b]pyridine] | < 0.1
COc1cccc(OC)c1-c1ccnc2cc(-c3cc(C(N)=O)ccc3C(C)C)oc12 [Compound A74, 3-[7-(2,6-dimethoxy-phenyl)-furo[3,2-b]pyridin-2-yl]-4-isopropyl-benzamide] | 3 to 50
COc1cc(-c2cc3nccc(-c4ccnc(O)c4)c3o2)cc(OC)c1OC [Compound A39, 4-[2-(3,4,5-trimethoxy-phenyl)-furo[3,2-b]pyridin-7-yl]-pyridin-2-ol] | 0.3 to 3
COCC(O)CNC(=O)c1ccc(OC)c(-c2cc3nccc(-c4c(OC)cccc4OC)c3o2)c1 (centres unmarked) [Compound A69, 3-[7-(2,6-dimethoxy-phenyl)-furo[3,2-b]pyridin-2-yl]-N-(2-hydroxy-3-methoxypropyl)-4-methoxy-benzamide] | 0.3 to 3
